What was measured:
PNT1a = assay: MTT cytotoxicity, 72 h; assay type: cell-based; conditions: platinum complexes
DNA from HCT-116 cells = assay: Platinum content on DNA isolated from treated cells (ICP-MS); assay type: cell-based, human; conditions: for Platinum content on DNA / Platinum on DNA, % from the total intracellular Pt amount: HCT-116, 24 h, 0.35 µM; for Platinum on DNA, % from the total intracellular Pt amount: rough estimate from Tables 2 and 3
Experimental: (§1) As for antitumor cisplatin and its direct derivatives, DNA is believed to be the target also for Pt(IV) prodrugs examined in the present work.
(§2) The cells were seeded in 150 cm^2 culture flasks at a density 1 × 10^7 cells/flask (67 000 cells/cm^2). After 48-h incubation, the cells were treated with the compounds (0.35 μM) for 24 h. The attached cells were washed twice with PBS (4 °C). As mentioned in the preceding paragraph, 75% of cells were used for analysis of platinum bound to DNA, remaining 25% were used for estimations of cellular accumulation of platinum. Cells were then lysed in DNAzol (DNAzol® genomic DNA isolation reagent, MRC) supplemented with RNase A (100 μg mL^−1). The genomic DNA was precipitated from the lysate with ethanol, dried and resuspended in water. The DNA content in each sample was determined by UV spectrophotometry. The DNA samples were digested in the presence of hydrochloric acid (11 M) using high-pressure microwave mineralization system (MARS5, CEM). The platinum content was determined by ICP-MS. Experiments were performed in triplicate and the values are the means ± SD.

DNA from A2780 cells = assay: as above; assay type: cell-based, human; conditions: for Platinum content on DNA / Platinum on DNA, % from the total intracellular Pt amount: A2780, 24 h, 0.35 µM; for Platinum on DNA, % from the total intracellular Pt amount: rough estimate from Tables 2 and 3
Experimental: as §1, §2

HCT-116 cells [1] = assay: Cellular platinum accumulation/distribution by ICP-MS; assay type: cell-based, human; conditions: HCT-116, 24 h, 0.35 µM
[2] = system: DNMT enzymes in HCT-116 cells; assay: DNMT activity in nuclear extracts of treated cells; assay type: cell-based, human; conditions: 24 h
Experimental: In these experiments, the total activity of DNMT enzymes was determined in nuclear extracts prepared from HCT-116 cells which were treated with the platinum compounds, free OA or decitabine for 24 h (Fig. 4B).
Human colon carcinoma cells (HCT-116) were seeded in 100 mm culture dishes at the density 1.5 × 10^6 cells/dish. Cells were harvested after 24 h of incubation with the compounds tested in the present work (1 µM). Nuclear extracts from the pellets were separated using EpiQuik Nuclear extraction kit I (Epigentek, NY) according to manufacturer’s instructions. Quantification of nuclear proteins was analyzed with the standard Bradford assay. The activity of DNMT enzymes was analyzed using the EpiQuik DNMT activity/inhibition assay Ultra kit (Epigentek, NY), according to the manufacturer´s protocol. Briefly, 10 µg of total nuclear protein was analyzed for its DNMT activity. The reaction time with a universal DNMT substrate stably coated onto microplate wells was 120 min at 37 °C. The final signal at the end of the ELISA reaction was detected at 450 nm (reference 620 nm). DNMT activity was normalized to controls and expressed in the percent or absolute values as OD h^−1 mg^−1, calculated as described in the manufacturer’s manual.

[3] = system: A2780 human ovarian carcinoma cells; assay: MTT cytotoxicity, 72 h; assay type: cell-based; conditions: for IC50: MTT, 72 h, platinum complexes
A2780 cells = assay: Cellular platinum accumulation/distribution by ICP-MS; assay type: cell-based, human; conditions: for Platinum in cytosol / Platinum in nucleus: A2780, 24 h; for Platinum in cytosol / Platinum in nucleus / Total cellular platinum accumulation: 0.35 µM; for Total cellular platinum accumulation: A2780, 24 h exposure
Experimental: (§3) Cellular concentrations of platinum were determined by inductively coupled plasma mass spectrometry (ICP-MS) after 24 h of exposure to the complexes at the concentration of 0.35 µM.
(§4) Cellular uptake studies were also carried out to measure the accumulation of platinum species in cytosol and nucleus. […] The platinum levels in each pool were measured by ICP-MS. The extent of accumulation of both OA conjugated Pt(IV) prodrugs into the cytosol and nucleus fractions was markedly higher than that of cisplatin or Pt(IV)diAc.
(§5) The cells were seeded in 150 cm^2 culture flasks at a density 1 × 10^7 cells/flask (67 000 cells/cm^2). After 48-h incubation, the cells were treated with the compounds (0.35 μM) for 24 h. The attached cells were washed twice with PBS (4 °C). Seventy-five percent of cells were used for analysis of platinum bound to DNA, remaining 25% were used for estimations of cellular accumulation of platinum. Cell pellets were digested by a high-pressure microwave digestion system (MARS5, CEM) with HCl to give a fully homogenized solution, and final platinum content was determined by ICP-MS. The analysis with the aid of ICP-MS was performed using Agilent 7500 (Agilent, Japan) or Thermo Optek X Series.
(§6) A2780 cells were seeded in 100 mm tissue culture dishes (3 × 10^6 cells) and grown for 48 h to 80–90% confluence. Cells were harvested after 24 h of treatment. Concretely, the dishes were washed two times with ice-cold PBS and the cells scraped into tubes and centrifuged for 10 min at 0 °C (200 g). The pellets were resuspended in the lysis buffer [Tris·HCl (10 mM, pH 8.0), KCl (60 mM), EDTA (1.2 mM), DTT (1 mM), phenylmethanesulfonyl fluoride (PMSF, 0.1 mM), NP-40 (0.04%)] for 10 min on ice and centrifuged for 4 min at 0 °C (800 g). Cytosolic fraction was separated for platinum ICP-MS analysis, and protein concentration was determined by Bradford assay. The pellets were rinsed with the above lysis buffer without PMSF and NP-40 and centrifuged for another 4 min at 0 °C (300 g). The pellets were resuspended in 50 µL nuclear extraction buffer [Tris·HCl (20 mM, pH 8.0), NaCl (420 mM), MgCl2 (0.7 mM), EDTA (0.25 mM), glycerol (25%)] and incubated for 30 min at 4 °C, continuously mixed on end-over-end roller, and then centrifuged for 15 min at 0 °C (13000 g). Protein concentration in nuclear extracts was determined by the Bradford assay, and stored at −80 °C until analysis.

HCT-116 cells [4] = assay: as above; assay type: cell-based, human; conditions: for Total cellular platinum accumulation: HCT-116, 24 h exposure, 0.35 µM
Experimental: as §3, §4, §5, §6

Structure (SMILES)	IC50 (PNT1a) [nM]	Platinum content on DNA (DNA from HCT-116 cells) [pg Pt/µg DNA]	Platinum on DNA, % from the total intracellular Pt amount (DNA from HCT-116 cells) [%]	Platinum content on DNA (DNA from A2780 cells) [pg Pt/µg DNA]	Platinum on DNA, % from the total intracellular Pt amount (DNA from A2780 cells) [%]	Platinum in cytosol (HCT-116 cells [1]) [pg Pt/µg protein]	Platinum in nucleus (HCT-116 cells [1]) [pg Pt/µg protein]	Activity of DNMT enzymes ([2]; HCT-116, 1.0 µM)	IC50 [3] [nM]	Platinum in cytosol (A2780 cells) [pg Pt/µg protein]	Platinum in nucleus (A2780 cells) [pg Pt/µg protein]	Total cellular platinum accumulation (A2780 cells) [ng Pt/10^6 cells]	Total cellular platinum accumulation (HCT-116 cells [4]) [ng Pt/10^6 cells]	further results
CC(=O)[O][Pt]([NH2])([NH2])([Cl])([Cl])[O]C(C)=O [Pt(IV)diAc, cis, cis, trans-[Pt(IV)(NH3)2Cl2(Ac)2]]	2480 ± 100	1.3 ± 0.1	2.0	1.1 ± 0.4	1.9	2.1 ± 0.3	4.6 ± 0.5	no significant effect	5300 ± 1000	3.0 ± 0.4	3.0 ± 0.5	0.45 ± 0.09	0.19 ± 0.04	–
CCCCCCCC(=O)[O][Pt]([NH2])([NH2])([Cl])([Cl])[O]C(=O)CCCCCCC [Pt(IV)diOA, cis, cis, trans-[Pt(IV)(NH3)2Cl2(OA)2]]	22 ± 1	123.1 ± 5.1	11.9	43.3 ± 5.3	13.0	59 ± 7	189 ± 9	enhanced activity of DNMT enzymes	41 ± 1	138 ± 12	173 ± 15	12.9 ± 0.3	29.2 ± 0.3	Increase of DNA platination vs. cisplatin (DNA from HCT-116 cells; HCT-116, Fig. 2B): 77 x; Increase of DNA platination vs. Pt(IV)diAc (DNA from HCT-116 cells; HCT-116, Fig. 2D): 95 x; Increase of DNA platination vs. cisplatin (DNA from A2780 cells; A2780, Fig. 2A): 28 x; Increase of DNA platination vs. Pt(IV)diAc (DNA from A2780 cells; A2780, Fig. 2C): 39 x; Activity of DNMT enzymes ([2]; HCT-116, 0.5 µM): enhanced activity of DNMT enzymes; Increase of cytotoxicity vs. cisplatin ([3]; A2780, Fig. 2A): 68 x; Increase of cytotoxicity vs. Pt(IV)diAc ([3]; A2780, Fig. 2C): 129 x; Increase of cellular accumulation vs. cisplatin (A2780 cells; A2780, Fig. 2A): 16 x; Increase of cellular accumulation vs. Pt(IV)diAc (A2780 cells; A2780, Fig. 2C): 29 x; Increase of cellular accumulation vs. cisplatin (HCT-116 cells [4]; HCT-116, Fig. 2B): 34 x; Increase of cellular accumulation vs. Pt(IV)diAc (HCT-116 cells [4]; HCT-116, Fig. 2D): 153 x
N.N.[Cl][Pt][Cl] [cisplatin, reference compound]	2500 ± 320	1.6 ± 0.2	2.2	1.5 ± 0.6	2.0	3.6 ± 0.2	4.1 ± 0.3	no significant effect	2800 ± 100	5.5 ± 0.9	3.0 ± 0.7	0.8 ± 0.2	0.9 ± 0.1	Activity of DNMT enzymes ([2]; HCT-116, 30 µM): no significant effect

— paper PMC5473904, “Epigenetic and antitumor effects of platinum(IV)-octanoato conjugates” (Scientific Reports, 2017)
